Measured values reported in US20260250262A1, “NEW COMPOUND AND PHARMACEUTICAL COMPOSITION COMPRISING SAME” (SAMJIN PHARMACEUTICAL CO., LTD., priority 2023, published 2026).

Columns and labels:
[1] = target: T1, Recombinant NAMPT protein (Homo sapiens, UniProt P43490); test: NAMPT enzyme inhibition assay (BPS Bioscience NAMPT Inhibitor Screening Assay Kit); type: biochemical; conditions: 30 min pre-incubation, 2 h at 30° C., fluorescence
T1 construct: purchased BPS bioscience #7176-1
Experimental: Recombinant NAMPT protein was added to each well of a black 96-well plate, and dilution buffer was added to a blank well instead of NAMPT protein. A 5× concentrated compound solution was added and pre-incubated at room temperature (approximately 22° C.) for 30 minutes before the start of the reaction so that the compound and protein might bind before the enzyme reaction. At this time, the concentration of NAMPT protein was adjusted and used according to the enzyme activity of each protein lot within the final concentration range of 4-10 ng/μl, and the test compound was serially diluted at a ratio of 1:3 from 1000 nM to 1 nM, and experiments were conducted with n=2 for about seven concentrations. […] The NAMPT enzyme activity (%) was calculated by subtracting the measurement value of the blank well without NAMPT protein from the measurement value of all wells, and then taking the measurement value of the control well without the compound as 100%.

HCT-116 cell lines = test: Cellular NAD measurement assay (NAD/NADH-Glo); type: cell-based; conditions: Homo sapiens; HCT-116, 24 hours treatment, intracellular NAD+/NADH level
Experimental: With regard to HCT-116 cell lines, the decrease in intracellular NAD+ and NADH levels due to the inhibition of NAMPT enzyme activity by compounds was evaluated using NAD/NADH-Glo™ Assay (Promega, G9072) from Promega. The cells were incubated using DMEM (Gibco, 11995-065) medium containing 10% FBS. The HCT-116 cells were incubated for 24 hours after being distributed at a density of 2,500 cells per well in a 96-well plate, and were treated with the drugs using serum-free DMEM. First, the compounds were dissolved in 100% dimethyl sulfoxide (DMSO), and then diluted in the culture medium so that the final concentration of DMSO might reach 0.5%, and treated with the drugs. The final concentration range of the compounds was 0.1 nM to 100 nM. After that, they were further incubated for 24 hours under conditions of 37° C. and CO2 5%. To conduct the NAD/NADH-Glo™ Assay, the culture medium of drug-treated cells was removed, 50 μL of DPBS was treated per well, and left at room temperature for five minutes. The required amount of NAD/NADH-Glo™ Detection Reagent (Reconstituted Luciferin Detection Reagent 1 mL, Reductase 5 μL, Reductase Substrate 5 μL, NAD Cycling Enzyme 5 μL, NAD Cycling Substrate 25 μL) was prepared according to the manufacturer's manual and treated in an amount of 50 μL per well. After incubating for two minutes at 400 rpm in a plate shaker for cell lysis, the cells were incubated for 30 minutes at room temperature, and luminescence was measured. NAD+/NADH levels were calculated by subtracting the measurement value of the blank well without cells from the measurement value of all wells and taking the 0.5% DMSO-treated control as 100%.

[2] = system: HCT-116 (colorectal cancer); test: Tumor cytotoxicity assay (MTT), HCT-116; type: cell-based; conditions: Homo sapiens, HCT-116, 72 hours
Experimental: (§1) First, the compounds were prepared in 100% dimethyl sulfoxide (DMSO) at concentrations of 0.02 μM to 200 μM, and then diluted in the culture medium so that the final concentration of DMSO might reach 0.5%, and treated with the drugs. The final concentration range of the compounds was 0.1 nM to 1000 nM. After that, they were further incubated for 72 hours under conditions of 37° C. and CO2 5%. […] The cell viability (%) was relatively determined by subtracting the reference 650 nm optical density (O.D.) from the 570 nm O.D., and the 0.5% DMSO-treated control was set as 100% as the standard.

NCI-N87 (gastric cancer) = test: Tumor cytotoxicity assay (MTT), NCI-N87; type: cell-based; conditions: Homo sapiens, NCI-N87, 72 hours
Experimental: as §1

T1 sequence (P43490 whole entry): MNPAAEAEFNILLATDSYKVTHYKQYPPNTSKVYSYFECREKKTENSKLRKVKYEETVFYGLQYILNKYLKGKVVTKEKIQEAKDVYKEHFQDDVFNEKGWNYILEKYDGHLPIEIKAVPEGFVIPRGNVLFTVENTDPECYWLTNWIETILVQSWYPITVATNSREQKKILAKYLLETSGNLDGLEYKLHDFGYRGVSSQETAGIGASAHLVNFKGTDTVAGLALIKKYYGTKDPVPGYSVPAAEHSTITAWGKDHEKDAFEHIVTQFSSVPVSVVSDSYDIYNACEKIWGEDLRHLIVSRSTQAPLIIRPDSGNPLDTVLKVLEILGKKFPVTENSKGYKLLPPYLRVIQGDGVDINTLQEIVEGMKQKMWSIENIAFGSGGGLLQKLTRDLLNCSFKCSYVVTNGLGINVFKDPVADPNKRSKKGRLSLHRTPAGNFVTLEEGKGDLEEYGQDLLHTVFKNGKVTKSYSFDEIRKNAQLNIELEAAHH

IC50 [1] [nM]	IC50 (HCT-116 cell lines) [nM]	Compound	CC50 [2] [nM]	CC50 (NCI-N87 (gastric cancer)) [nM]
< 500	10 to 1000	O=C(NCCc1cccnc1)Nc1ccc(-c2ccncc2)c(C#Cc2ccc(C(=O)NCCN3CCNCC3)cc2)c1 [Compound 47]	< 30	30 to 100
< 500	≤ 10	Cn1ccc(CS(=O)(=O)c2ccc(NC(=O)NCc3ccn4ccnc4c3)cc2C#Cc2ccc(F)cc2)n1 [Compound 183, 1-(3-((4-fluorophenyl)ethynyl)-4-(((1-methyl-1H-pyrazol-3-yl)methyl)sulfonyl)phenyl)-3-(imidazo[1,2-a]pyridin-7-ylmethyl)urea]	< 30	–
< 500	≤ 10	Cc1nc2cc(-c3ccc(NC(=O)NCCc4cccnc4)cc3C#Cc3ccc(F)cc3)ccc2c(=O)n1CCN [Compound 186]	< 30	30 to 100
< 500	≤ 10	O=C(NCc1ccn2ccnc2c1)Nc1ccc(-c2ccncc2)c(C#Cc2ccc(C3CCNCC3)cc2)c1 [Compound 187]	< 30	< 30

The remaining lines, values behind:

Compound	IC50 [1] [nM]	IC50 (HCT-116 cell lines) [nM]	CC50 [2] [nM]	CC50 (NCI-N87 (gastric cancer)) [nM]
O=C(NCCc1cccnc1)Nc1ccc(-c2ccncc2)c(C#Cc2ccc(F)cc2)c1 [Compound 1, 1-(3-((4-fluorophenyl)ethynyl)-4-(pyridin-4-yl)phenyl)-3-(2-(pyridin-3-yl)ethyl)urea]	< 500	10 to 1000	30 to 100	30 to 100
O=C(NCc1ccn2ccnc2c1)Nc1ccc(-c2ccncc2)c(C#Cc2ccc(F)cc2)c1 [Compound 4, 1-(3-((4-fluorophenyl)ethynyl)-4-(pyridin-4-yl)phenyl)-3-(imidazo[1,2-a]pyridin-7-ylmethyl)urea]	< 500	≤ 10	< 30	< 30
O=C(NCCc1cccnc1)Nc1ccc(-c2ccc(N3CCNCC3)cc2)c(C#Cc2ccc(F)cc2)c1 [Compound 13, 1-(2-((4-fluorophenyl)ethynyl)-4′-(piperazin-1-yl)-[1,1′-biphenyl]-4-yl)-3-(2-(pyridin-3-yl)ethyl)urea]	< 500	≤ 10	< 30	< 30
Cc1nc2cc(-c3ccc(NC(=O)NCCc4cccnc4)cc3C#Cc3ccc(F)cc3)ccc2c(=O)[nH]1 [Compound 14]	< 500	≤ 10	< 30	< 30
